Measurements as given in ChEMBL document CHEMBL2074535, “Differential interactions of cytochalasins with P-glycoprotein” (Oncol Res, 1995).

Key:
[1] = target: T1, ATP-dependent translocase ABCB1 (Homo sapiens, UniProt P08183); test: TP_TRANSPORTER: ATP hydrolysis in membranes from MCF/ADR cells; format: functional, cell membranes, Membrane
[2] = target: T1, ATP-dependent translocase ABCB1; test: TP_TRANSPORTER: increase in Vinblastine intracellular accumulation (Vinblastine: 0.01-0.02 uM, Dihydrocytochalasin B: 10 uM) in MCF-7/ADR cells; format: functional, cell-based; details: nci/adr-res
[3] = target: T1, ATP-dependent translocase ABCB1; test: TP_TRANSPORTER: increase in Vinblastine intracellular accumulation (Vinblastine: 0.01-0.02 uM, Cytochalasine E: 10 uM) in MCF-7/ADR cells; format: functional, cell-based; details: nci/adr-res

T1 sequence (P08183 whole entry): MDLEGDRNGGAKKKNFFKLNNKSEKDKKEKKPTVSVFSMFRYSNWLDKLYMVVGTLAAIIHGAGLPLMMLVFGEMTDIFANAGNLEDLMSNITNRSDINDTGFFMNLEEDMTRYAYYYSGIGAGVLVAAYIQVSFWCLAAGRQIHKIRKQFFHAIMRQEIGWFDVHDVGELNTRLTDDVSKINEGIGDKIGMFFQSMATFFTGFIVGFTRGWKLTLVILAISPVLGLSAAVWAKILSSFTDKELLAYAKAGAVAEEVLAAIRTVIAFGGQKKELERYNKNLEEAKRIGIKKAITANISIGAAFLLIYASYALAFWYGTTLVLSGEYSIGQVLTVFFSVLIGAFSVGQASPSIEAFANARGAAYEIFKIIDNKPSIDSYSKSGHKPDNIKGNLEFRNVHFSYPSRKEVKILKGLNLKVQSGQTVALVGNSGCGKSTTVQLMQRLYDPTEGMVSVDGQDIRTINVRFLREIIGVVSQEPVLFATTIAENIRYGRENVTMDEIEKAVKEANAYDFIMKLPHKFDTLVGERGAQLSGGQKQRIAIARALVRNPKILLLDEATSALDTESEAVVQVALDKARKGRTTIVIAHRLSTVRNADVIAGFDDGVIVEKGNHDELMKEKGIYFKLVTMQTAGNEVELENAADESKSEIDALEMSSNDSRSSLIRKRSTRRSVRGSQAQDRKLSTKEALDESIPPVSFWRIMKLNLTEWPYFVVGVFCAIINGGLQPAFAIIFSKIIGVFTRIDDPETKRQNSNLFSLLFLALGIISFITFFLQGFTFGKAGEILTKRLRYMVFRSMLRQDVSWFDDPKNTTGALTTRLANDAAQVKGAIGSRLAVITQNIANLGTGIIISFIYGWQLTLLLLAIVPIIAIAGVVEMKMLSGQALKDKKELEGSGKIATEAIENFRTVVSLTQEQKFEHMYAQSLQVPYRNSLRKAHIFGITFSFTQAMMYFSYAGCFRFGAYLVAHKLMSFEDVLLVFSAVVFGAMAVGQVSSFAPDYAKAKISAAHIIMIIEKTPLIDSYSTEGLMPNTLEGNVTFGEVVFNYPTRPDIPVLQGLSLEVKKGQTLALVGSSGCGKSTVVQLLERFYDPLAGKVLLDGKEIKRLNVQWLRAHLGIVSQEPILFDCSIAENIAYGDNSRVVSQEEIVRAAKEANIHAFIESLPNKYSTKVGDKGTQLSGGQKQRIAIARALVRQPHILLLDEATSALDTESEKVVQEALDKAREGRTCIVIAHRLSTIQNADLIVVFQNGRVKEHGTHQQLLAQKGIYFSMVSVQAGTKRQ

SMILES | Activity [1] | Activity [2] | Activity [3]
C=C1[C@@H](C)[C@H]2[C@H](Cc3ccccc3)NC(=O)[C@]23OC(=O)CC[C@H](O)CCC[C@@H](C)C/C=C/[C@H]3[C@@H]1O [DIHYDROCYTOCHALASIN B] | substrate [+] | 257% | –
C[C@H]1C/C=C/[C@H]2[C@@H]3O[C@]3(C)[C@@H](C)[C@H]3[C@H](Cc4ccccc4)NC(=O)[C@]32OC(=O)O/C=C/[C@@](C)(O)C1=O [CYTOCHALASIN E] | – | – | 190%
